Results taken from US20250026745A1 (Bluejay Therapeutics, Inc., priority 2023, published 2025).
Like-named read-outs stand apart in the source and are kept apart here.

How the values were obtained:
[1] = molecular target: HEK293 cells expressing 17β-HSD13 (Homo sapiens (Human), UniProt Q7Z5P4); test: 17β-HSD13 cell-based assay (β-estradiol conversion, LC-MS/MS)
Procedure: HEK293 cells expressing 17β-HSD13 either stably or transiently were incubated with compounds for 60 min at 37° C. in a humidified incubator. After this first incubation step, β-estradiol was added to each well of the microtiter plate and incubated for 3 h at 37° C. in the humidified incubator. After treatment with β-Estradiol, 50 μL of supernatant was transferred to a 96-V plate containing 100 μL acetonitrile and centrifuged at 3900 rpm for 45 min. Finally, 50 μL of supernatant were taken for LC-MS/MS analysis. The chromatography part was run on a Xbridge 30 mm×2.1 mm column (Waters), at 40 degrees Celsius and a flow rate of 0.8 mL/min for 5 min, while the MS was done on a Q Exactive Orbitrap (Fisher Scientific) in Target SIM mode and negative polarity with a spray voltage of 3.5 kV. EC50 values were determined with GraphPad Prism®, where log-transformed concentration values and the inhibition data were fitted to a four-parameter logistic equation. Y=Bottom+(Top−Bottom)/(1+10^((Log EC50−X)*Hill Slope)). The original, % control, or % inhibition data are represented by Y along with their minimal (Bottom) and maximal (Top) values. The inhibitor concentration is represented by X, EC50 is the concentration at 50% maximal value, and Hill Slope is the slope factor.

[2] = molecular target: recombinant 17β-HSD13 protein (Homo sapiens (Human), UniProt Q7Z5P4); test: 17β-HSD13 biochemical assay (NAD+/NADH Glo chemiluminescence); conditions: 17β-HSD13 50 nM, NAD+ 10 mM, β-estradiol 20 μM, 2 hours room temperature
Procedure: 17β-HSD13 biochemical assays are generically described in patents WO 2022/020730, WO 2021/003295, and WO 2023/023310. More specifically, recombinant 17β-HSD13 protein was assayed in a buffer containing 200 mM Tris pH 7.5, 0.01% Triton X-100, and 0.02% BSA into a 384-well assay plate. Compounds were incubated with 17β-HSD13 (final 50 nM) and NAD+ (final 10 mM) at room temperature for 1 h prior to substrate addition. The assay reaction was then initiated by addition of β-estradiol (final 20 μM), and the reaction mixture was incubated for 2 hours at room temperature. Product formation was detected with chemiluminescence by adding equal volume of NAD+/NADH Glo reagent (Promega, #G9062) and read on a PHERAstar microplate reader (BMG LABTECH). IC50 values were determined with GraphPad Prism®, where log-transformed concentration values and the inhibition data were fitted to a four-parameter logistic equation. Y=Bottom+(Top−Bottom)/(1+10^((Log IC50−X)*HillSlope)). The original, % control, or % inhibition data are represented by Y along with their minimal (Bottom) and maximal (Top) values. The inhibitor concentration is represented by X, IC50 is the concentration at 50% maximal value, and Hill Slope is the slope factor.

[3] = HEK293 cells stably expressing 17β-HSD13 (footnote b), read-out: EC50, nM Stable
[4] = HEK293 cells transiently expressing 17β-HSD13 (footnote a), read-out: EC50, nM Transient

Sequence of recombinant 17β-HSD13 protein (Q7Z5P4 20-300): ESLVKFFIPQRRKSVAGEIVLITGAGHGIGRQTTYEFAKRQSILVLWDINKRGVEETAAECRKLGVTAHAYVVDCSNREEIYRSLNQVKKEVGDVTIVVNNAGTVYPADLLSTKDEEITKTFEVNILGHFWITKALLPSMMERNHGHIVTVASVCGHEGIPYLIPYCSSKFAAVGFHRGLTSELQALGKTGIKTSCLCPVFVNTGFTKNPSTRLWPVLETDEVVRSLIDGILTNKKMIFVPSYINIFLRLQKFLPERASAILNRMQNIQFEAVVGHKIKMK
Sequence of HEK293 cells expressing 17β-HSD13 (Q7Z5P4 20-300): as above

SMILES	EC50 [1, 3]	IC50 [2]	EC50 [1, 4]
O=C1N(Cc2ccccc2)C(=O)C2(CC2)N1Cc1nnc(-c2cc(F)c(F)c(O)c2F)s1 [Compound I-69, 6-benzyl-4-((5-(2,4,5-trifluoro-3-hydroxyphenyl)-1,3,4-thiadiazol-2-yl)methyl)-4,6-diazaspiro[2.4]heptane-5,7-dione]	21.5 nM		
CCN1C(=O)N(Cc2nnc(-c3ccc(F)c(O)c3Cl)s2)C2(CC2)C1=O [Compound I-10, 4-((5-(2-chloro-4-fluoro-3-hydroxyphenyl)-1,3,4-thiadiazol-2-yl)methyl)-6-ethyl-4,6-diazaspiro[2.4]heptane-5,7-dione]	51 nM	17.9 ± 0.0566 nM	118 nM
O=C1N(C(c2ccc(F)cc2F)C(F)(F)F)C(=O)C2(CC2)N1Cc1nnc(-c2ccc(F)c(O)c2Cl)s1 (stereo not drawn) [Compound I-54, 4-[[5-(2-chloro-4-fluoro-3-hydroxy-phenyl)-1,3,4-thiadiazol-2-yl]methyl]-6-[1-(2,4-difluorophenyl)-2,2,2-trifluoro-ethyl]-4,6-diazaspiro[2.4]heptane-5,7-dione]	10.7 nM	1.53 nM	
CCCN1C(=O)N(Cc2nnc(-c3ccc(F)c(O)c3F)s2)C2(CC2)C1=O [Compound I-4, 4-((5-(2,4-difluoro-3-hydroxyphenyl)-1,3,4-thiadiazol-2-yl)methyl)-6-propyl-4,6-diazaspiro[2.4]heptane-5,7-dione]		10.6 ± 0.919 nM	20.6 nM
O=C1N(CC(F)(F)F)C(=O)C2(CC2)N1Cc1nnc(-c2cc(C(F)(F)F)cc(O)c2Cl)s1 [Compound I-40, 4-((5-(2-chloro-3-hydroxy-5-(trifluoromethyl)phenyl)-1,3,4-thiadiazol-2-yl)methyl)-6-(2,2,2-trifluoroethyl)-4,6-diazaspiro[2.4]heptane-5,7-dione]	66.4 nM	9.8 nM	
CC(C)N1C(=O)N(Cc2nnc(-c3ccc(F)c(O)c3F)s2)C2(CC2)C1=O [Compound I-5, 4-((5-(2,4-difluoro-3-hydroxyphenyl)-1,3,4-thiadiazol-2-yl)methyl)-6-isopropyl-4,6-diazaspiro[2.4]heptane-5,7-dione]		8.99 ± 0.322 nM	42.2 nM
O=C1N([C@@H](c2ccccc2)C(F)(F)F)C(=O)C2(CC2)N1Cc1nnc(-c2ccc(F)c(O)c2Cl)s1 [Compound I-52, 4-[[5-(2-chloro-4-fluoro-3-hydroxy-phenyl)-1,3,4-thiadiazol-2-yl]methyl]-6-[(1S)-2,2,2-trifluoro-1-phenyl-ethyl]-4,6-diazaspiro[2.4]heptane-5,7-dione]	6.41 ± 1.23 nM	1.09 ± 0.23 nM	
O=C1N(CC2(C(F)(F)F)CC2)C(=O)C2(CC2)N1Cc1nnc(-c2ccc(F)c(O)c2F)s1 [Compound I-19, 4-((5-(2,4-difluoro-3-hydroxyphenyl)-1,3,4-thiadiazol-2-yl)methyl)-6-((1-(trifluoromethyl)cyclopropyl)methyl)-4,6-diazaspiro[2.4]heptane-5,7-dione]	78.8 nM	14.8 ± 2.51 nM	
O=C1N(C(c2ccccc2)C(F)(F)F)C(=O)C2(CC2)N1Cc1nnc(-c2ccc(F)c(O)c2Cl)s1 (stereo in doubt) [Compound I-53, 4-[[5-(2-chloro-4-fluoro-3-hydroxy-phenyl)-1,3,4-thiadiazol-2-yl]methyl]-6-[(S)-(difluoromethyl-fluoranyl)-phenyl-methyl]-4,6-diazaspiro[2.4]heptane-5,7-dione]	26.3 nM	5.6 nM	
O=C1N(CC2(C(F)(F)F)CC2)C(=O)C2(CC2)N1Cc1nnc(-c2ccc(F)c(O)c2Cl)s1 [Compound I-26, 4-((5-(2-chloro-4-fluoro-3-hydroxyphenyl)-1,3,4-thiadiazol-2-yl)methyl)-6-((1-(trifluoromethyl)cyclopropyl)methyl)-4,6-diazaspiro[2.4]heptane-5,7-dione]	107 nM	18.7 ± 2.67 nM	
O=C1N(Cc2ccc(Cl)cc2Cl)C(=O)C2(CC2)N1Cc1nnc(-c2ccc(F)c(O)c2Cl)s1 [Compound I-34, 4-((5-(2-chloro-4-fluoro-3-hydroxyphenyl)-1,3,4-thiadiazol-2-yl)methyl)-6-(2,4-dichlorobenzyl)-4,6-diazaspiro[2.4]heptane-5,7-dione]	119 nM	4.6 nM	
O=C1N(CC(F)(F)F)C(=O)C2(CC2)N1Cc1nnc(-c2cc(F)c(F)c(O)c2F)s1 [Compound I-68, 4-((5-(2,4,5-trifluoro-3-hydroxyphenyl)-1,3,4-thiadiazol-2-yl)methyl)-6-(2,2,2-trifluoroethyl)-4,6-diazaspiro[2.4]heptane-5,7-dione]	35 nM		
O=C1N(CC23CC(C2)C3)C(=O)C2(CC2)N1Cc1nnc(-c2ccc(F)c(O)c2F)s1 [Compound I-6, 6-(bicyclo[1.1.1]pentan-1-ylmethyl)-4-((5-(2,4-difluoro-3-hydroxyphenyl)-1,3,4-thiadiazol-2-yl)methyl)-4,6-diazaspiro[2.4]heptane-5,7-dione]		22.1 ± 2.18 nM	165 nM
C[C@H](c1ccccc1)N1C(=O)N(Cc2nnc(-c3ccc(F)c(O)c3Cl)s2)C2(CC2)C1=O [Compound I-31, 4-[[5-(2-chloro-4-fluoro-3-hydroxy-phenyl)-1,3,4-thiadiazol-2-yl]methyl]-6-[(1R)-1-phenylethyl]-4,6-diazaspiro[2.4]heptane-5,7-dione]	10.8 nM	2.68 nM	
O=C1N([C@H](c2ccc(F)cc2F)C(F)(F)F)C(=O)C2(CC2)N1Cc1nnc(-c2ccc(F)c(O)c2F)s1 [Compound I-90A, (R)-4-((5-(2,4-difluoro-3-hydroxyphenyl)-1,3,4-thiadiazol-2-yl)methyl)-6-(1-(2,4-difluorophenyl)-2,2,2-trifluoroethyl)-4,6-diazaspiro[2.4]heptane-5,7-dione]	8.38 nM	1.01 ± 0.125 nM	
O=C1N(Cc2nnc(-c3ccc(F)c(O)c3F)s2)C2(CC2)C(=O)N1C1(c2ccccc2)CC1 [Compound I-86, 4-((5-(2,4-difluoro-3-hydroxyphenyl)-1,3,4-thiadiazol-2-yl)methyl)-6-(1-phenylcyclopropyl)-4,6-diazaspiro[2.4]heptane-5,7-dione]	4.74 nM	2.5 nM	
O=C1N([C@@H](c2ccc(-c3ccc(F)cc3)cc2F)C(F)(F)F)C(=O)C2(CC2)N1Cc1nnc(-c2ccc(F)c(O)n2)s1 [Compound I-96, (S)-6-(1-(3,4′-difluoro-[1,1′-biphenyl]-4-yl)-2,2,2-trifluoroethyl)-4-((5-(5-fluoro-6-hydroxypyridin-2-yl)-1,3,4-thiadiazol-2-yl)methyl)-4,6-diazaspiro[2.4]heptane-5,7-dione]	121 nM	3.11 nM	
C[C@@H](c1ccccc1)N1C(=O)N(Cc2nnc(-c3ccc(F)c(O)c3Cl)s2)C2(CC2)C1=O [Compound I-32, (S)-4-((5-(2-chloro-4-fluoro-3-hydroxyphenyl)-1,3,4-thiadiazol-2-yl)methyl)-6-(1-phenylethyl)-4,6-diazaspiro[2.4]heptane-5,7-dione]	14.7 nM	3.72 nM	
CC(C)(C)N1C(=O)N(Cc2nnc(-c3ccc(F)c(O)c3Cl)s2)C2(CC2)C1=O [Compound I-50, 6-(tert-butyl)-4-((5-(2-chloro-4-fluoro-3-hydroxyphenyl)-1,3,4-thiadiazol-2-yl)methyl)-4,6-diazaspiro[2.4]heptane-5,7-dione]	35.1 ± 6.03 nM	4.6 nM	
O=C1N(C2CCC2)C(=O)C2(CC2)N1Cc1nnc(-c2ccc(F)c(O)c2F)s1 [Compound I-30, 6-cyclobutyl-4-((5-(2,4-difluoro-3-hydroxyphenyl)-1,3,4-thiadiazol-2-yl)methyl)-4,6-diazaspiro[2.4]heptane-5,7-dione]	35.9 nM	7.08 nM	
CC[C@@H](C)N1C(=O)N(Cc2nnc(-c3ccc(F)c(O)c3F)s2)C2(CC2)C1=O [Compound I-42, (R)-6-(sec-butyl)-4-((5-(2,4-difluoro-3-hydroxyphenyl)-1,3,4-thiadiazol-2-yl)methyl)-4,6-diazaspiro[2.4]heptane-5,7-dione]	15.7 nM	4.08 nM	
O=C1N(Cc2ccccc2)C(=O)C2(CC2)N1Cc1nnc(-c2cc(C(F)F)c(F)c(O)c2F)s1 [Compound I-65, 6-benzyl-4-((5-(5-(difluoromethyl)-2,4-difluoro-3-hydroxyphenyl)-1,3,4-thiadiazol-2-yl)methyl)-4,6-diazaspiro[2.4]heptane-5,7-dione]	19.2 nM		
